Measurements published in paper PMC7746380, “In vitro and in vivo efficacy of the novel oral proteasome inhibitor NNU546 in multiple myeloma” (Aging (Albany NY), 2020).

Legend:
ARH77 xenograft = experiment: ARH77 MM xenograft model; format: in vivo, mice; details: BIW, 3 weeks
Protocol: For the ARH77 xenograft model, female BNX mice (n=5; 5-7 weeks old; Shanghai Sippr-BK laboratory Animal Co. Ltd.) were implanted with 5×10^6 of ARH77 cells in Matrigel (1:1) and randomized into treatment and vehicle groups when the mean tumor volume (MTV) reached 100-150 mm^3. For the intravenous treatment groups, mice were treated with bortezomib (1 mg/kg, BIW) or NNU219 (0.4 mg/kg, BIW), respectively. For i.g. administration, mice were treated with ixazomib (5 mg/kg, BIW) and NNU546 (1 mg/kg, QD) or NNU546 (2 mg/kg, QOD). Tumors were measured twice a week and the tumor volume was calculated using the following formula: 0.5 × (length × width^2).

[1] = Microsomal stability, human liver microsomes; format: in vitro ADME; details: pooled human liver microsomes, 1 μM compound, 37 °C
Protocol: (§1) Microsomal stabilities were determined by incubating 1 μM of the test compounds with rat, mouse, dog, monkey or human liver microsomes (Xenotech, USA) for different durations at 37 °C. Clearance and T1/2 were calculated by measuring the remaining percentage of test compounds at different time-points. Liquid chromatography/mass spectrometry (Xevo Quadrupole Time-of-Flight Mass Spectrometer; Waters) and an ACQUITY High-Performance Liquid Chromatography (HPLC) system ([…]) were used to determine the relative peak area for the parent compounds.
(§2) Antipyrine and testosterone (5 μM each)
(§3) were used as positive and negative controls, respectively. Abbreviations: t = time; CLint, intrinsic clearance. […]

[2] = tested on: NF-κB/luciferase 293T cells; experiment: NF-κB inhibition assay (luciferase reporter, TNF-α stimulated); format: cell-based; details: Homo sapiens, HEK-293T; 6 h pre-treatment, then 10 ng/ml TNF-α for 18 h; read from Figure 3K
Protocol: To determine the inhibition of NF-κB signaling, the transfected NF-κB/luciferase 293T cells were pre-treated with various concentrations of NNU219 or bortezomib for 6 h and then stimulated with 10 ng/ml of tumor necrosis factor-α (TNF-α) for 18 h, followed by measurement of luciferase activity by using the Dual-Luciferase® Reporter Assay System (Promega Corp., Madison, WI, USA) as previously described.

[3] = Microsomal stability, mouse liver microsomes; format: in vitro ADME; details: pooled mouse liver microsomes, 1 μM compound, 37 °C
Protocol: as §1, §2, §3

[4] = tested on: 20S proteasome (CT-L, C-L, T-L activities) in whole blood; experiment: In vivo proteasome activity in whole blood; parameters: species or system mice; details: 48 h after dose
Protocol: For the cellular proteasome activity assays, cells were treated with concentrations of compounds (0-10 μM) for 1 h at 37 °C and the CT-L, C-L and T-L activities of proteasome were evaluated by using the Proteasome-Glo assay reagents (Promega Corp. Madison, WI, USA) according to the manufacturer's protocol. For determination of recovery of cellular proteasome activity, cells were treated with the compounds for 1 h and then washed thrice in PBS to remove the compounds. Cells were incubated in fresh medium for an additional 4, 24 or 72 h at 37 °C. […] Blood samples were collected after 1 h, and whole blood cells were then analyzed for proteasome activity as previously described.
For the pharmacodynamic study, female BNX mice (n=6; 5-7 weeks old; Shanghai Sippr-BK laboratory Animal Co. Ltd.) were given one single dose of NNU219 (0.4 mg/kg) and bortezomib (1 mg/kg) by i.v. administrations or NNU546 (2-15 mg/kg) by oral gavage. […] Tissue homogenates and cell lysates were removed by centrifugation and supernatants were collected for protein quantitation and proteasome activity determination using the Proteasome-Glo assay reagents as described above.

[5] = Microsomal stability, rat liver microsomes; format: in vitro ADME; details: pooled rat liver microsomes, 1 μM compound, 37 °C
Protocol: as §1, §2, §3

[6] = tested on: patient-derived primary human MM xenografts; experiment: Patient-derived MM xenograft (PDX) model in NCG mice; format: in vivo; details: 5 mg/kg i.g., BIW, 3 weeks
Description: The PDX model was generated from biopsies of patients with MM brain manifestation at the Department of Hematology, the 1st Affiliated Hospital of Nanjing Medical University. Freshly excised tumor tissue specimens were washed and cut into 2.5×2.5×2.5 mm^3 pieces in antibiotic-containing L-15 medium. Under anesthesia with pentobarbital, 4-6 weeks-old male NCG mice (n=6; Model Animal Research Center of Nanjing University) were subcutaneously transplanted with the tumor pieces. Tumors were harvested when their size reached 500 mm^3 (Px1 xenografts). Tumor tissue from Px1 xenograft mice was divided into small pieces and then implanted again subcutaneously as described above to obtain Px2 xenografts. This process was once more and the experiments were performed on Px3 xenograft mice, which were randomized into treatment groups when tumor volume reached 100-150 mm^3. Mice were orally administered with ixazomib (5 mg/kg, i.g., BIW) or NNU546 (1 mg/kg, QD). Tumors were measured twice a week.

Row | CLint scaled at 1 μM [1] [mL/min/kg] | half-life at 1 μM [1] [min] | CLint scaled at 1 μM [3] [mL/min/kg] | half-life at 1 μM [3] [min] | CLint scaled at 1 μM [5] [mL/min/kg] | half-life at 1 μM [5] [min] | Structure (SMILES) | reduction of tumor volume (ARH77 xenograft; 1 mg/kg i.v.) [%] | IC50 [2] [nM] | proteasome inhibition in whole blood at 48 h [4] | reduction of tumor progression (ARH77 xenograft; 5 mg/kg i.g.) [%] | reduction of tumor volume [6] [%]
1 | 58.3 | 21.4 | 509 | 10.7 | 200 | 12.4 | CC(C)C[C@H](NC(=O)[C@H](Cc1ccccc1)NC(=O)c1cnccn1)B(O)O [bortezomib] | 24.9 | 18.8 | only minimal or no inhibition |  | 
2 |  |  |  |  |  |  | CC(C)C[C@H](NC(=O)CNC(=O)c1cc(Cl)ccc1Cl)B(O)O [ixazomib] |  |  |  | 36.3 | 30.5
